Measurements: patent publication US11046716B2, “Beta-lactamase inhibitors” (priority 2015, dated 2021)
pIC50: −log10 of the molar value.

Assays:
[1] = tested on: K. pneumoniae expressing the class A carbapenemase KPC-2 and the class B carbapenemase VIM-4; test: Broth microdilution MIC assay with meropenem, K. pneumoniae KPC-2 and VIM-4; assay type: cell-based; details: Fixed Mero (meropenem) 4 μg/mL; K. p. A-1797 KPC-2 VIM-4
Procedure, shortened: (§1)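 Strains grown 3-5 hours in CAMHB are inoculated by the CLSI broth microdilution method onto compound dilutions (16 to 0.125 μg/mL) overlaid with β-lactam at 4 μg/ml final. After 16-20 hours at 37° C, the lowest compound concentration inhibiting growth is taken as the MIC.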

[2] = tested on: K. pneumoniae expressing the Class A carbapenemase KPC-2; test: Broth microdilution MIC assay with meropenem, K. pneumoniae KPC-2; assay type: cell-based; details: Fixed Mero (meropenem) 4 μg/mL; K. p. 156319 KPC-3
Procedure, shortened: as §1

[3] = tested on: E. coli expressing the Class A Extended Spectrum Beta-Lactamase (ESBL) CTX-M-15; test: Broth microdilution MIC assay with ceftazidime, E. coli CTX-M-15; assay type: cell-based; details: Fixed CAZ (ceftazidime) 4 μg/mL; E. coli ESBL4 CTX-M-15
Procedure, shortened: as §1

SHV-5 = target: T1, SHV-5 (Klebsiella pneumoniae, UniProt P0A3M1); test: β-lactamase enzyme inhibition assay, SHV-5 (cefotaxime substrate); assay type: biochemical
T1 construct: made in house; host or cells: E. coli BL21(DE3)
Procedure, shortened: (§2)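 IC50 is the inhibitor level cutting initial substrate hydrolysis rate by 50% relative to no-inhibitor controls, after 15 min enzyme–inhibitor preincubation at 37 °C. KPC-2 read with imipenem at 300 nm, SHV-5 with cefotaxime at 260 nm; enzymes were untagged, E. coli-expressed, chromatographically purified.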

AmpC = target: T2, AmpC (Enterobacter cloacae, UniProt P05364); test: β-lactamase enzyme inhibition assay, p99 AmpC (nitrocefin substrate); assay type: biochemical
T2 construct: made in house; host or cells: E. coli BL21(DE3)
Procedure, shortened: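 IC50 is the inhibitor level cutting initial substrate hydrolysis rate by 50% relative to no-inhibitor controls, after 15 min enzyme–inhibitor preincubation at 37 °C. enzymes were untagged, E. coli-expressed, chromatographically purified.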

VIM-2 = target: T3, VIM-2 (Escherichia coli, UniProt Q5U7L7); test: β-lactamase enzyme inhibition assay, VIM-2 (nitrocefin substrate); assay type: biochemical; details: Class B; nitrocefin substrate, 486 nm; read-out: VIM-2
T3 construct: made in house; host or cells: E. coli BL21(DE3)
Procedure, shortened: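 First, VIM-2 purified by repeated anion exchange at pH 7.5 is mixed with inhibitor and held 15 min at 37 °C. Next, nitrocefin (final 100 μM) is dispensed and absorbance at 486 nm monitored immediately for 10 min. Rates versus uninhibited controls give IC50.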

KPC-2 = target: T4, KPC-2 (Klebsiella pneumoniae, UniProt Q9F663); test: β-lactamase enzyme inhibition assay, KPC-2 (imipenem substrate); assay type: biochemical; details: Class A; imipenem substrate, 300 nm; read-out: KPC-2
T4 construct: made in house; host or cells: E. coli BL21(DE3)
Procedure, shortened: as §2

[4] = tested on: E. cloacae expressing the Class C P99; test: Broth microdilution MIC assay with ceftazidime, E. cloacae P99; assay type: cell-based; details: Fixed CAZ (ceftazidime) 4 μg/mL; E. cl. 144200 p99 AmpC
Procedure, shortened: as §1

OXA-48 = OXA-48 (UniProt Q6XEC0); test: β-lactamase enzyme inhibition assay, Class D oxacillinase; assay type: biochemical; details: read-out: OXA-48
[5] = tested on: K. pneumoniae producing the Class D carbapenemase OXA-48; test: Broth microdilution MIC assay with meropenem, K. pneumoniae OXA-48; assay type: cell-based; details: Fixed Mero (meropenem) 4 μg/mL; K. p. 11978 OXA-48
Procedure, shortened: as §1

[6] = tested on: P. aeruginosa expressing the Class B carbapenemase VIM-2; test: Broth microdilution MIC assay with meropenem, P. aeruginosa VIM-2; assay type: cell-based; details: Fixed Mero (meropenem) 4 μg/mL; P. aerug. 2775 VIM-2
Procedure, shortened: as §1

T1 sequence (P0A3M1 22-286): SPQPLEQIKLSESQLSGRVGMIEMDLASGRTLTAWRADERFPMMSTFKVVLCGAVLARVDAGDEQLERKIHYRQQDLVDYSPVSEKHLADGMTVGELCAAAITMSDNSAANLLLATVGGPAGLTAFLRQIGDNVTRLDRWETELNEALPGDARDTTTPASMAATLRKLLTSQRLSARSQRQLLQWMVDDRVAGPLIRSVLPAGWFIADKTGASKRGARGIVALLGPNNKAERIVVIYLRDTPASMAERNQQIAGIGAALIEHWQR
T4 sequence (Q9F663 25-293, looked up): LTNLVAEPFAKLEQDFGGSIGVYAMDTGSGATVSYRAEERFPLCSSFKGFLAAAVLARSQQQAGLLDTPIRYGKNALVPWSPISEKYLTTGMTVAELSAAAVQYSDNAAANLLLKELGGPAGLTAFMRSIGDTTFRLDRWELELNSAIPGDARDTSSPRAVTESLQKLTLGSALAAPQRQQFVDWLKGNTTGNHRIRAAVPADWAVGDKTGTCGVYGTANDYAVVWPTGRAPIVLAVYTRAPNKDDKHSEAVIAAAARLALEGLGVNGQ
T2 sequence (P05364 21-381): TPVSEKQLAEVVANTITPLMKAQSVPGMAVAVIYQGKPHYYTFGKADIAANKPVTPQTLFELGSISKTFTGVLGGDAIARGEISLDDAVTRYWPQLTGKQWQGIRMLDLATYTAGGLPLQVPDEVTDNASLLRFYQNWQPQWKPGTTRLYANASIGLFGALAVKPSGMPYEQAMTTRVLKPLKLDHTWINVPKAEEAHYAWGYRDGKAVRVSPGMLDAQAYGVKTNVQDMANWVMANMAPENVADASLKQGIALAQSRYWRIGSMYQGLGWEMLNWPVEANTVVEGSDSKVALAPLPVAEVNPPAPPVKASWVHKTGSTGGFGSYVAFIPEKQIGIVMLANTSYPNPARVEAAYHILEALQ

Row | Compound | MIC (μg/mL) of Exemplary Compounds in presence of fixed β-lactams: K. p. A-1797 KPC-2 VIM-4 [1] | MIC (μg/mL) of Exemplary Compounds in presence of fixed β-lactams: K. p. 156319 KPC-3 [2] | MIC (μg/mL) of Exemplary Compounds in presence of fixed β-lactams: E. coli ESBL4 CTX-M-15 [3] | pIC50 (SHV-5) | pIC50 (AmpC) | pIC50 (VIM-2) | pIC50 (KPC-2) | MIC (μg/mL) of Exemplary Compounds in presence of fixed β-lactams: E. cl. 144200 p99 AmpC [4] | pIC50 (OXA-48) | MIC (μg/mL) of Exemplary Compounds in presence of fixed β-lactams: K. p. 11978 OXA-48 [5] | MIC (μg/mL) of Exemplary Compounds in presence of fixed β-lactams: P. aerug. 2775 VIM-2 [6]
1 | O=C(Cc1nnnn1CC1CCNCC1)N[C@H]1Cc2cccc(C(=O)O)c2OB1O [Example 98, (R)-2-hydroxy-3-(2-(1-(piperidin-4-ylmethyl)-1H-tetrazol-5-yl)acetamido)-3,4-dihydro-2H-benzo[e][1,2]oxaborinine-8-carboxylic acid] | B (B represents an MIC between 1 and 16 μg/mL inclusive) | C (C represents an MIC of <1 μg/mL) | C (C represents an MIC of <1 μg/mL) | > 7.00 | > 7.00 | > 7.00 | > 7.00 | C (C represents an MIC of <1 μg/mL) | 6.00 to 7.00 | B (B represents an MIC between 1 and 16 μg/mL inclusive) | C (C represents an MIC of <1 μg/mL)
2 | O=C(Cn1nnc(C(=O)O)c1C(=O)O)N[C@H]1Cc2cccc(C(=O)O)c2OB1O [Example 16, (R)-1-(2-((8-carboxy-2-hydroxy-3,4-dihydro-2H-benzo[e][1,2]oxaborinin-3-yl)amino)-2-oxoethyl)-1H-1,2,3-triazole-4,5-dicarboxylic acid] | B (B represents an MIC between 1 and 16 μg/mL inclusive) | B (B represents an MIC between 1 and 16 μg/mL inclusive) | B (B represents an MIC between 1 and 16 μg/mL inclusive) | > 7.00 | > 7.00 | 5.00 to 6.00 | > 7.00 | C (C represents an MIC of <1 μg/mL) | > 7.00 | B (B represents an MIC between 1 and 16 μg/mL inclusive) | B (B represents an MIC between 1 and 16 μg/mL inclusive)
3 | NCc1nc(CC(=O)N[C@H]2Cc3cccc(C(=O)O)c3OB2O)cs1 [Example 19, (R)-3-(2-(2-(aminomethyl)thiazol-4-yl)acetamido)-2-hydroxy-3,4-dihydro-2H-benzo[e][1,2]oxaborinine-8-carboxylic acid] | B (B represents an MIC between 1 and 16 μg/mL inclusive) | B (B represents an MIC between 1 and 16 μg/mL inclusive) | C (C represents an MIC of <1 μg/mL) | > 7.00 | > 7.00 | 6.00 to 7.00 | > 7.00 | C (C represents an MIC of <1 μg/mL) | > 7.00 | B (B represents an MIC between 1 and 16 μg/mL inclusive) | C (C represents an MIC of <1 μg/mL)
4 | CCn1nnnc1CC(=O)N[C@H]1Cc2cccc(C(=O)O)c2OB1O [Example 54, (R)-3-(2-(1-ethyl-1H-tetrazol-5-yl)acetamido)-2-hydroxy-3,4-dihydro-2H-benzo[e][1,2]oxaborinine-8-carboxylic acid] | B (B represents an MIC between 1 and 16 μg/mL inclusive) | B (B represents an MIC between 1 and 16 μg/mL inclusive) | C (C represents an MIC of <1 μg/mL) | > 7.00 | > 7.00 | 6.00 to 7.00 | > 7.00 | C (C represents an MIC of <1 μg/mL) | 5.00 to 6.00 | B (B represents an MIC between 1 and 16 μg/mL inclusive) | B (B represents an MIC between 1 and 16 μg/mL inclusive)
